Paper PMC11274715 (2024)

Experiments:
Experiment in all cases: ITC
Settings in all cases: 40 mM NaCl, 5 mM MgCl2; 25 mM Tris-HCl pH 7.5, 25 °C; single-site model
[1] = system: SAM-VI WT RNA (RNA, riboswitch) ACAACAGAAUGAACCAACGUAUCAUUGUGCCUUAUCCGCAAAAGGCGGGUAGGGCGAUAAGUCCGAAAGAGGGAUGAUAUG
[2] = system: SAM-VI AP RNA (RNA, riboswitch) CGUAUCAUUGUGCCUUAUCCGCAAAAGGCGGGUAGGGCGAUAAGUCCGAAAGAGGGAUGAUAUG
[3] = system: SAM-VI M2 RNA (RNA, riboswitch) ACAACAGAAUGAACCAACGUAUCAUUGUGCCUUAUCCGCAAAAGGCGGGUAGGGCGAUAAGUCCGAAAGAGGGAUGAU

How did the affinity [1] turn out when C[S+](CC[C@H](N)C(=O)O)C[C@H]1O[C@@H](n2cnc3c(N)ncnc32)[C@H](O)[C@@H]1O (stereo partly drawn) was run?
The affinity was 8.95 µM.

And the affinity [2]?
The affinity was 5.33 µM.

And the Kd [3]?
Its Kd is 419.95 µM.
